This note sets out measurements from PMC6433934, “Preclinical Evaluation of Bispecific Adaptor Molecule Controlled Folate Receptor CAR-T Cell Therapy With Special Focus on Pediatric Malignancies” (Frontiers in Oncology, 2019).

Data set [1] is described as follows: EC17 dose finding safety study, tumor-free mice. The class given is in vivo. Details: key to CRS grade: 0: normal (no CRS); 1: mild; 2: light-to-moderate; 3–4: severe CRS; 5: death (due to severe CRS). To be noted: ~10 million E2-CAR-T cells. From the text: For MDA-MB-231 studies, mice received a high dose (~10 million) of a “clinical facsimile” of E2-CAR-T cells (~39% EGFRt+) with a low differentiation profile. Two days later, we started them with 3 different treatment regimens of EC17 at an average tumor size of ~293 ± 39 mm^3. The EC17 dosing was given once-a-week (SIW) at 500 nmol/kg on Mondays, or as escalating doses of 5, 50, or 100, and 500 or 1,000 nmol/kg on Monday, Thursday, and Monday with a 6 day break in-between cycles. Control mice were left untreated (received CAR-T cells but no EC17). For comparison, a cohort of tumor-free littermates also received the same number of CAR-T cells without or with EC17 SIW at 500 nmol/kg. To study the effect of high dietary folate, two sets of NSG mice were placed on either a FA-replete diet (4 mg/kg, Envigo, Indianapolis, IN) or a FA-deficient diet (TestDiet, St. Louis, MO) upon arrival. […]
Depending on the CAR-T cell dose and how EC17 is administered, tumor-bearing mice receiving FITC-specific CAR-T cells can experience severe CRS and varying degrees of body weight loss ([27], [33], [34]). […] On the days immediately following each EC17 dose, animals were scored and rescue agents such as sodium fluorescein, folic acid and leucovorin were used to mitigate CRS toxicity ([33]). […]

The test system of another data set is THP1-FRβ. The data set can be described thus: AML study, intravenous xenografts, EC17 dosing regimens. The class given is in vivo, NSG mice. How it is done: All animal care and use were performed according to NIH guidelines and in compliance with protocols approved by the Purdue University Animal Use and Care Committee. Female 4 to 5-weeks-old NOD/SCID gamma (NSG™) mice (stock number: 005557) were purchased from The Jackson Laboratory (Bar Harbor, ME). Unless specifically indicated, all animals were maintained on a FA-deficient diet (TestDiet, St. Louis, MO) upon arrival and throughout the study. To establish subcutaneous xenografts, MDA-MB-231 and HOS-FRα were implanted in the right flank region at 2.5 × 10^6 and 1 × 10^6 cells per animal, respectively. For intravenous xenografts, THP1-FRβ cells were inoculated at 5 × 10^6 cells per animal. Subcutaneous tumors were measured 2–3 times per week with a caliper and calculated using the ellipsoidal formula (length x width^2)/2. […] All animal doses (CAR-T cells, EC17, sodium fluorescein) were given intravenously.
For AML studies, mice were intravenously infused with THP1-FRβ tumor cells 1 day prior to receiving a low dose of ~6 million E2-CAR-T cells (~23% EGFRt+). At ~3.5 days post CAR-T cell infusion, EC17 was dosed in 3 different ways including (i) SIW at 500 nmol/kg, (ii) thrice at 5/50/500 nmol/kg on Monday/Wednesday/Friday followed by a 9 day break in between cycles (TIW On/Off), and iii) as escalating doses of 5/10/100 nmol/kg in Cycle 1, 5/30/300 nmol/kg in Cycle 2, and 5/50/500 nmol/kg in Cycle 3, all on Monday/Thursday/Monday with a 6 day break in between cycles (M/Th/M, On/Off). On day 31, satellite animals were harvested for quantification of CAR-positive T cells identified in the mouse blood as human CD3ε+ EGFRt+ events and calculated as absolute numbers per 100 μL of whole blood. Upon euthanasia or at the end of study on day 38, total tumor load in THP1-FRβ tumor-bearing mice was assessed by measuring GFP+ tumor cells in the blood by flow cytometry and collecting liver weight (with metastatic lesions) and total weight of nonliver macrometastases found in the body cavities. Tumor fragments of liver metastases were enzymatically digested into single-cell suspensions and viable cell populations were analyzed for the status of CAR-T cell exhaustion using anti-human PD1, LAG3, and TIM3 (clones EH12.1, T47-530, and 7D3, respectively).
(§1) Depending on the CAR-T cell dose and how EC17 is administered, tumor-bearing mice receiving FITC-specific CAR-T cells can experience severe CRS and varying degrees of body weight loss ([27], [33], [34]). Therefore, we developed a CRS grading system (0–5 scale) to empirically assess CRS toxicity from animals' gross morphology and social behavior to allow for better timing of CRS rescue. While grades 0 and 5 indicated normal (no CRS) or death (due to severe CRS), respectively, grades 1, 2, and 3–4 were considered mild, light-to-moderate, and severe CRS. In addition, all EC17 doses were intentionally given toward the end of any given day to allow potential CRS symptoms to develop overnight. On the days immediately following each EC17 dose, animals were scored and rescue agents such as sodium fluorescein, folic acid and leucovorin were used to mitigate CRS toxicity ([33]). In this particular instance, a batch of E2-CAR-T cells with a high EGFRt+ CD4/CD8 ratio (~93:7) was given to HOS-FRα tumor-bearing mice at a mixture of ~2.5 million CD8 and ~33 million CD4 on day 0. When EC17 was dosed, respectively, at 500, 100, and 500 nmol/kg on days 3, 10, and 12, low CRS (grades 1–2) was noted on days 4 and 11 but high CRS (grade 3) was noted on day 13. To mitigate the severe CRS toxicity, sodium fluorescein was intravenously administrated at ~96 mg/kg in the morning of day 13 and mouse plasma samples were collected 6 h later for analysis of CRS-associated cytokines.

Data set [2] concerns HOS-FRα tumor-bearing mice. The data set can be described thus: Toxicity and CRS rescue with sodium fluorescein. It is filed as in vivo. The following applies: ~2.5 million CD8 and ~33 million CD4 E2-CAR-T cells. Here is the method: as §1

Structures are written as SMILES.

Regarding `Nc1nc2ncc(CNc3ccc(C(=O)NC(CCC(=O)NCCNC(=S)Nc4ccc(-c5c6ccc(=O)cc-6oc6cc(O)ccc56)c(C(=O)O)c4)C(=O)O)cc3)nc2c(=O)[nH]1` (centres unmarked) [EC17, FA-(γ)-ethylenediamine-FITC], the CRS grade in data set [1] (2 weekly doses EC17 500 nmol/kg, 0–5 scale) is 0; with THP1-FRβ (EC17 M/Th/M dose escalation, Cycle 2 after 300 nmol/kg, ~6 million E2-CAR-T cells) it was 0–1; in the data set on THP1-FRβ (EC17 SIW 500 nmol/kg, Cycles 2 and 3, ~6 million E2-CAR-T cells), 1–2; in the data set on THP1-FRβ (EC17 TIW 5/50/500 nmol/kg on/off, ~6 million E2-CAR-T cells), 0–1; in data set [2] (day 13, after EC17 500 nmol/kg on day 12), 3; in data set [2] (days 4 and 11, after EC17 500 and 100 nmol/kg on days 3 and 10), 1–2. Moreover, the “CAR-T cell expansion by flow cytometry” value in data set [1] (EC17 SIW 500 nmol/kg) is given as “no CAR-T cell expansion was detected”. In addition, the non-liver macrometastases result in the data set with THP1-FRβ (EC17 M/Th/M dose escalation at a slow pace per cycle) is listed as “failed to control”; in the data set with THP1-FRβ (EC17 SIW and TIW at 10-fold dose escalation (on/off)) it was “successfully controlled”. Moreover, in the data set with THP1-FRβ (THP1-FRβ xenografts, EC17 plus E2-CAR-T cells), the cures result is recorded as “no cures”. The “circulating THP1-FRβ tumor cells in the blood” value with THP1-FRβ (any of the 3 EC17 regimens vs controls, ~6 million E2-CAR-T cells) is recorded as “effectively reduced”.
